{
  "source": "patent US6069132A",
  "about": "“Phosphazole compounds” (priority 1997, dated 2000)",
  "key": {"[1]": {"test": "Cytotoxicity on growing MRC-5 cells (MTS)", "type": "cell-based, human", "conditions": "human, mrc-5 cells; Table 4; 50% inhibition of logphase growing cells; read-out: TC50 Growing MRC-5", "protocol": "(§1) Cell Culture. Vero (African Green Monkey kidney cells) and MRC-5 (diploid Human Embryonic Lung fibroblasts) cells were obtained from the American Type Culture Collection (ATCC) and were grown in minimal essential medium (MEM) with Earl's salts and glutamine (GIBCO BRL, Life Technologies, Inc.) with 10% heat inactivated fetal bovine serum (GIBCO BRL) and penicillin (100 μg/mL)/streptomycin (100 μg/mL).\n(§2) Cytotoxicity Analysis. The cytotoxicity of the compound was assayed using few the CellTiter 96™ Aqueous Non-Radioactive Cell Proliferation (MTS) Assay (Promega). Briefly, viable cell number was determined by trypan blue staining and cells (MRC-5 and Vero) were resuspended in minimal essential medium (MEM) supplemented with 10% FBS (GIBCO). Eighty microliters of cell suspension (1.7×10^4 cells/well) was dispensed onto a 96-well microtiter plates. At this time 20 μL of drug (or control) was added to appropriate wells. Each concentration was assayed in quadruplicate. The plates were incubated at 37° C. in a humidified 5% CO2 atmosphere for 4 days and MTS assay was performed according to the manufacturer's instructions. The average absorbence of the sample was graphed for each concentration and the data obtained was used to calculate TC50 (the concentration necessary to give one-half maximum growth) for each compound."}, "[2]": {"conditions": "cited from earlier work"}, "[3]": {"system": "bone marrow progenitor cells", "conditions": "cited from earlier work"}, "[4]": {"test": "Cytotoxicity on static Vero cells", "type": "cell-based", "conditions": "african green monkey, Table 4, 50% cell death (static cells), read-out: TC50 Static Vero", "protocol": "as §1, §2"}, "HCMV (Town strain)": {"system": "HCMV (Town strain)", "test": "HCMV plaque reduction (CPE) assay in MRC-5 cells", "type": "cell-based, human cytomegalovirus", "conditions": "Human betaherpesvirus 5, MRC5; Table 4; read-out: IC50 HCMV", "protocol": "The adenine analog phosphazole (compound T70241) was assayed for antiviral activity using a HCMV plaque reduction assay, in accordance with known methods such as that described in U.S. Pat. No. 5,446,045.\nas §1\nCMV Cytopathic Effect (CPE) Assay. Assays were performed essentially as described by Lewis et al. (111), which report is incorporated herein by reference. MRC-5 cells (100,000 cells/well) were seeded in 24-well plates overnight. Medium was then removed and wells were rinsed once with 250 μL of 2% FCS-MEM before adding 40-50 pfu of HCMV (Town strain) to each well. After 2 hours of virus adsorption, the medium was removed and the cells were rinsed once with 2% FCS-MEM. Varying concentrations of the phosphazole compound in the culture medium (1 mL) was then added to appropriate wells and plates were incubated for 5-6 days at 37° C. in a humidified 5% CO2 atmosphere. Each concentration was tested in duplicate wells.\nThe extent of the plaque reduction was quantitated by removing the media and adding 200 μL of 0.1% crystal violet in 20% methanol to all wells. The crystal violet was then removed after 10 min staining at room temperature by rinsing in the sink with tap water and the plates dried overnight. The plaques were then counted using a Nikon inverted microscope."}, "herpesviruses": {"system": "herpesviruses", "conditions": "cited from earlier work"}, "normal cells": {"system": "normal cells", "conditions": "relative to antiviral concentrations; cited from earlier work"}, "[5]": {"test": "Cytotoxicity on static MRC-5 cells", "type": "cell-based", "conditions": "human, Table 4, 50% cell death (static cells), read-out: TC50 Static MRC-5", "protocol": "as §1, §2"}, "[6]": {"test": "Cytotoxicity on growing Vero cells (MTS)", "type": "cell-based", "conditions": "african green monkey, Table 4, 50% inhibition of logphase growing cells, read-out: TC50 Growing Vero", "protocol": "as §1, §2"}, "[7]": {"system": "vesicular stomatitis virus", "conditions": "in culture; cited from earlier work"}, "[8]": {"system": "human T-lymphoblast (Molt-4F) cells", "conditions": "in culture; cited from earlier work"}, "vaccinia virus": {"system": "vaccinia virus", "conditions": "in culture; cited from earlier work"}, "[9]": {"system": "murine mammary carcinoma (FM3) cells", "conditions": "in culture; cited from earlier work"}, "[10]": {"system": "human B-lymphoblast (Raji) cells", "conditions": "in culture; cited from earlier work"}, "[11]": {"system": "murine leukemia (L1210) cells", "conditions": "in culture; cited from earlier work"}, "coxsackie B4 virus": {"system": "coxsackie B4 virus", "conditions": "in culture; cited from earlier work"}},
  "note": "Where two headings read alike, the source gives them in different places.",
  "data": [
    {"smiles": "Nc1nc(O)c2ncn(COC(CO)CO)c2n1", "note": "[DHPG, ganciclovir, reference compound]", "values": [
      {"measurement": "CC50 at 96 h", "setting": "[1]", "result": "> 250", "unit": "µg/mL"},
      {"measurement": "clinical toxicity", "setting": "[2]; human, in vivo", "result": "most clinical toxicity is myelosuppression"},
      {"measurement": "toxicity to bone marrow progenitor cells", "setting": "[3]", "result": "toxic to bone marrow progenitor cells in culture"},
      {"measurement": "CC50 at 96 h", "setting": "[4]", "result": "> 250", "unit": "µg/mL"},
      {"measurement": "IC50", "setting": "HCMV (Town strain)", "result": 3.5, "unit": "µg/mL"},
      {"measurement": "activity against herpesviruses", "setting": "herpesviruses", "result": "potent inhibitor of most human and animal herpes viruses in culture"},
      {"measurement": "concentration needed to inhibit growth of normal cells", "setting": "normal cells", "result": "much higher concentrations are needed to inhibit cell growth of normal cells"},
      {"measurement": "CC50 at 96 h", "setting": "[5]", "result": "> 250", "unit": "µg/mL"},
      {"measurement": "CC50 at 96 h", "setting": "[6]", "result": "> 250", "unit": "µg/mL"}
    ]},
    {"smiles": "CCOP(=O)(OCC)c1nc2c(Cl)ncnc2n1[C@@H]1O[C@H](CO)[C@@H](O)[C@H]1O", "note": "[compound 1, Diethyl 6-chloro-9-(β-D-ribofuranosyl)purine-8-phosphate]", "values": [
      {"measurement": "activity against vesicular stomatitis virus", "setting": "[7]", "result": "significant activity"},
      {"measurement": "inhibition of proliferation of Molt-4F", "setting": "[8]", "result": "inhibitory"},
      {"measurement": "activity against vaccinia virus", "setting": "vaccinia virus", "result": "significant activity"},
      {"measurement": "inhibition of proliferation of FM3", "setting": "[9]", "result": "inhibitory"},
      {"measurement": "inhibition of proliferation of Raji", "setting": "[10]", "result": "inhibitory"},
      {"measurement": "inhibition of proliferation of L1210", "setting": "[11]", "result": "inhibitory"},
      {"measurement": "activity against coxsackie B4 virus", "setting": "coxsackie B4 virus", "result": "significant activity"}
    ]},
    {"smiles": "O=C(O)P(=O)(O)O", "note": "[foscarnet]", "values": [
      {"measurement": "clinical toxicity", "setting": "[2]; patients", "result": "nephrotoxicity, hypocalcemia, and seizures in some patients"},
      {"measurement": "activity against herpesviruses", "setting": "herpesviruses", "result": "observed activity against all known human herpesviruses"}
    ]}
  ]
}
